In ChEMBL document CHEMBL3734749, “Naturally occurring FANCFHes1 complex inhibitors from Wrightia religiosa” (Medchemcomm, 2015):
Calls of active or inactive are those of the source. No cut-off for these calls is given here.

How the values were obtained:
[1] = Inhibition of Cy3-GST-tagged human recombinant full length FANCF/Cy3-tagged rat Hes1 (3 to 281 amino acid residues) interaction expressed in Escherichia coli JM109 at 50 uM after 1 hrs by microplate reader assay
[2] = target: T1, Fanconi anemia group F protein/Transcription factor HES-1 (Homo sapiens) (UniProt Q9NPI8+Q14469); test: (§1) Inhibition of Cy3-GST-tagged human recombinant full length FANCF/Cy3-tagged human full length HES1 (1 to 280 amino acid residues) interaction expressed in Escherichia coli JM109 after 1 hrs by microplate reader assay
[3] = target: T2, Transcription factor HES-1 (Homo sapiens, UniProt Q14469); test: Inhibition of Cy3-tagged human recombinant full length HES1 (1 to 280 amino acid residues)/Cy3-GST-tagged human recombinant full length HES1 (1 to 280 amino acid residues) dimer formation expressed in Escherichia coli JM109 after 1 hr by microplate reader assay
T2 sequence (Q14469 whole entry): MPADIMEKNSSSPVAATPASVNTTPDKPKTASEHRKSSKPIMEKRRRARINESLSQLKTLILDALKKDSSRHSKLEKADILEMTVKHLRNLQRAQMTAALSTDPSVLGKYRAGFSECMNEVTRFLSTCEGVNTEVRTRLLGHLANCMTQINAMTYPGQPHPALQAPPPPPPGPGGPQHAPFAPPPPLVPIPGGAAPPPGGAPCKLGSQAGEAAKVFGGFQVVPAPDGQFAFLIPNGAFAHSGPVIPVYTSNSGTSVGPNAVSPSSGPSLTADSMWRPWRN

[4] = target: T1, Fanconi anemia group F protein/Transcription factor HES-1 (Homo sapiens); test: Inhibition of Cy3-GST-tagged human recombinant full length FANCF/Cy3-tagged human full length HES1 (1 to 280 amino acid residues) interaction expressed in Escherichia coli JM109 at 10 uM after 1 hrs by microplate reader assay
[5] = target: T3, Fanconi anemia group F protein/Transcription factor HES-1 (Homo sapiens, UniProt Q14469+Q9NPI8); test: as §1
T3 sequence (Q9NPI8 whole entry): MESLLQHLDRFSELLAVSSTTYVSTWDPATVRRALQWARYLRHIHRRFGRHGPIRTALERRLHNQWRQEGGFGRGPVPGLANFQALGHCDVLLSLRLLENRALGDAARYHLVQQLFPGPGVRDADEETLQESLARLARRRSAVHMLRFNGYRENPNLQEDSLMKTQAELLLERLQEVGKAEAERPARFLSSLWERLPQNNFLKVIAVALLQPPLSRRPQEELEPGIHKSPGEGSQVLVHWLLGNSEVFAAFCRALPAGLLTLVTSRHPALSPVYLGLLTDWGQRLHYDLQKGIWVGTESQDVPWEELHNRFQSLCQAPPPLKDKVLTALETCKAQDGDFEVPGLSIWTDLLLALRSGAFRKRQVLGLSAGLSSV
T3 sequence (Q14469 whole entry): T2 sequence (Q14469 whole entry)

[6] = Inhibition of GST-tagged recombinant mouse beta-catenin (128 to 683 amino acid residues)/human recombinant TCF4E (1 to 100 amino acid residues) complex formation expressed in Escherichia coli JM109 after 1 hrs by microplate reader assay
Bone marrow cell [7] = test: Reduction of colony formation in Fanconi C deficient mouse bone marrow cells at 50 uM after 10 to 14 days; assay type: functional, cell-based
[8] = Reduction of colony formation in wild type mouse bone marrow cells at 50 uM after 10 to 14 days; assay type: functional, Bone marrow cell; parameters: scale not given: the % may be the effect or the level left
Bone marrow cell [9] = test: Reduction of colony formation in Fanconi A deficient mouse bone marrow cells at 50 uM after 10 to 14 days; assay type: functional, cell-based

Row | inhibition [1] | inhibition [2] | IC50 [3] | inhibition [4] | IC50 [5] | IC50 [6] | SMILES | Activity (Bone marrow cell [7]) | Activity [8] | Activity (Bone marrow cell [9])
1 | Active | Dose-dependent effect | – | – | – | – | C[C@@H]1O[C@@H](OC[C@H]2O[C@@H](Oc3c(-c4ccc(O[C@@H]5O[C@@H](C)[C@H](O)[C@@H](O)[C@H]5O)cc4)oc4cc(O)cc(O)c4c3=O)[C@H](O)[C@@H](O)[C@@H]2O)[C@H](O)[C@H](O)[C@H]1O | – | – | –
2 | Active | Dose-dependent effect | > 100 µM | 40% | 35.8 µM | > 100 µM | C[C@@H]1O[C@@H](OC[C@H]2O[C@@H](Oc3c(-c4ccc(O)c(O)c4)oc4cc(O)cc(O)c4c3=O)[C@H](O)[C@@H](O)[C@H]2O)[C@H](O)[C@H](O)[C@H]1O | – | – | –
3 | Active | Dose-dependent effect | 25.7 µM | 40% | 23.6 µM | > 100 µM | C[C@@H]1O[C@@H](OC[C@H]2O[C@@H](Oc3c(-c4ccc(O[C@@H]5O[C@@H](C)[C@H](O)[C@@H](O)[C@H]5O)c(O)c4)oc4cc(O)cc(O)c4c3=O)[C@H](O)[C@@H](O)[C@@H]2O)[C@H](O)[C@H](O)[C@H]1O | inactive | 40% | Active
